In test [1] the target is T1, hGi (Gαi1β1γ1 heterotrimer) (Homo sapiens, UniProt P63096).
T1 construct: gene GNAI1; human Galphai1 with N-terminal TEV-cleavable deca-His tag from E. coli BL21(DE3); Gbeta1gamma1 from transducin of bovine retinae
As to the kind of experiment: GTPase-Glo luminescence assay. The class given is biochemical. The conditions noted are these: 2 uM G protein, 2 uM GTP stock mixed 1:1; 20 C; with and without JSR1-ATR6.11.

The target of a further test is T2, jsGiq (Gαiqβ1γ2) (Homo sapiens, UniProt P63096, A31R/D193S/L194I/D337C/T340K/V342T/I344L/K345Q/D350E/G352N/F354V).
T2 construct: gene GNAI1; heterotrimer from High Five insect cells, His tag removed with HRV 3C
As to the kind of experiment: GTPase-Glo luminescence assay. It is filed as biochemical. The conditions noted are these: 2 uM G protein, 2 uM GTP stock mixed 1:1; 20 C; with and without JSR1-ATR6.11.

Molecules are shown by their SMILES.

Here are results for one molecule from article PMC11484933, “Active state structures of a bistable visual opsin bound to G proteins” (Nature Communications, 2024).

T1 sequence (P63096 2-354): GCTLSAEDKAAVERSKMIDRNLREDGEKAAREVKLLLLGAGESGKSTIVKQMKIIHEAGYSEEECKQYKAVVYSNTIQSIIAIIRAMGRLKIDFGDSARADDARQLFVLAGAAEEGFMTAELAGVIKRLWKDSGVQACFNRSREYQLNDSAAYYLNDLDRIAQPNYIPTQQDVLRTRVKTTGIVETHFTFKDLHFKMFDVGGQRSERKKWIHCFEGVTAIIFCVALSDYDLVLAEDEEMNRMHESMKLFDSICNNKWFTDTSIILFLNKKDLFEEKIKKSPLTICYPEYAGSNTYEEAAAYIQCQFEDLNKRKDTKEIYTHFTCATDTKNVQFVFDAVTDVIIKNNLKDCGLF
T1 sequence (P62871 2-340 partner): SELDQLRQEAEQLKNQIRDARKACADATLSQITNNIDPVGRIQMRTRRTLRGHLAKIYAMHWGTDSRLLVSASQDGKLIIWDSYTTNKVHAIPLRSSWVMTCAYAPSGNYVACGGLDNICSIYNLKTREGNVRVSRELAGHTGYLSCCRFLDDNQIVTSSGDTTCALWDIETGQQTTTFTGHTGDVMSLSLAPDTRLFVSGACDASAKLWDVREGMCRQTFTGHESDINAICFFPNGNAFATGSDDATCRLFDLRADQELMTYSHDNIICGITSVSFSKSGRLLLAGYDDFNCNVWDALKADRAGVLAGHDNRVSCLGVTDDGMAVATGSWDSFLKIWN
T1 sequence (P02698 2-71 partner): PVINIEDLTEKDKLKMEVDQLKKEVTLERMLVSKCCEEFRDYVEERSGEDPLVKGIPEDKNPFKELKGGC
T2 sequence (P63096 2-354 A31R/D193S/L194I/D337C/T340K/V342T/I344L/K345Q/D350E/G352N/F354V): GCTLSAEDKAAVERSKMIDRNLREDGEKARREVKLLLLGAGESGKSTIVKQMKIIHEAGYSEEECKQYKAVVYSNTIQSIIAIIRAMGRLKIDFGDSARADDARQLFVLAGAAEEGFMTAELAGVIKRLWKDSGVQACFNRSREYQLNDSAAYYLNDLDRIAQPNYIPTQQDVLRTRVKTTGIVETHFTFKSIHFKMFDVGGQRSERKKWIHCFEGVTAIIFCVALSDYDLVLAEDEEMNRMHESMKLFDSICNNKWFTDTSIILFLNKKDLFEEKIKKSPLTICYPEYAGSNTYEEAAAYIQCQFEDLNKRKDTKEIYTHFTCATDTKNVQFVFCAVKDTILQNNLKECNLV
T2 sequence (P62873 2-340 partner): as the sequence (P62871 2-340 partner) above
T2 sequence (P59768 2-68 partner): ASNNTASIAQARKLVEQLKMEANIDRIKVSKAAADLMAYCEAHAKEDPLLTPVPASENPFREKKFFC

Regarding `Nc1nc2c(ncn2[C@@H]2O[C@H](COP(=O)(O)OP(=O)(O)OP(=O)(O)O)[C@@H](O)[C@H]2O)c(=O)[nH]1` [GTP], the GTP hydrolysis % result in test [1] was “GTPase-Glo assay showing GTP depletion for hGi and jsGiq samples”; at jsGiq (Gαiqβ1γ2), “An in vitro activity assay showed that this chimera retains intrinsic GTPase activity”.
